Source: ChEMBL document CHEMBL3797097 (J Med Chem, 2016)
Each block holds one compound with its values, some of them ahead of it.

Key:
Homo sapiens [1] = species: Homo sapiens; assay: Selectivity index, ratio Ki for human D3 receptor to Ki for human D2 receptor using [3H]N-methylspiperone displacement assay
D(2) dopamine receptor [2] = target: T1, D(2) dopamine receptor (Homo sapiens, UniProt P14416); assay: Agonist activity at human D2 receptor transfected in HEK293T cells by BRET based G0 activation assay; format: cell-based, HEK-293T
D(2) dopamine receptor [3] = target: T1, D(2) dopamine receptor; assay: biochemical; format: cell-based, HEK293
D(3) dopamine receptor [4] = target: T2, D(3) dopamine receptor (Homo sapiens, UniProt P35462); assay: Displacement of [3H]N-methylspiperone from human D3 receptor transfected in HEK293 cells measured after 60 mins by liquid scintillation counter; format: cell-based
D(3) dopamine receptor [5] = target: T2, D(3) dopamine receptor; assay: Displacement of [3H]7-OH-DPAT from human D3 receptor transfected in HEK293 cells measured after 60 mins by liquid scintillation counter; format: cell-based
D(2) dopamine receptor [6] = target: T1, D(2) dopamine receptor; assay: biochemical; format: cell-based, HEK293; remark: listed apart in the source
D(3) dopamine receptor [7] = target: T2, D(3) dopamine receptor; assay: Agonist activity at recombinant human D3 receptor expressing in CHOp cells assessed as receptor mediated stimulation of mitogenesis measured as [3H]thymidine incorporation after 24 hrs by scintillation spectrometry; format: cell-based
Homo sapiens [8] = species: Homo sapiens; assay: Selectivity index, ratio Ki for human D3 receptor to Ki for human D2 receptor using [3H]7-OH-DPAT displacement assay
D(3) dopamine receptor [9] = target: T2, D(3) dopamine receptor; assay: Agonist activity at human D3 receptor transfected in HEK293T cells by BRET based G0 activation assay; format: cell-based, HEK-293T
D(2) dopamine receptor [10] = target: T1, D(2) dopamine receptor; assay: Agonist activity at recombinant human D2 receptor expressing in CHOp cells assessed as receptor mediated stimulation of mitogenesis measured as [3H]thymidine incorporation after 24 hrs by scintillation spectrometry; format: cell-based

T2 sequence (P35462 whole entry): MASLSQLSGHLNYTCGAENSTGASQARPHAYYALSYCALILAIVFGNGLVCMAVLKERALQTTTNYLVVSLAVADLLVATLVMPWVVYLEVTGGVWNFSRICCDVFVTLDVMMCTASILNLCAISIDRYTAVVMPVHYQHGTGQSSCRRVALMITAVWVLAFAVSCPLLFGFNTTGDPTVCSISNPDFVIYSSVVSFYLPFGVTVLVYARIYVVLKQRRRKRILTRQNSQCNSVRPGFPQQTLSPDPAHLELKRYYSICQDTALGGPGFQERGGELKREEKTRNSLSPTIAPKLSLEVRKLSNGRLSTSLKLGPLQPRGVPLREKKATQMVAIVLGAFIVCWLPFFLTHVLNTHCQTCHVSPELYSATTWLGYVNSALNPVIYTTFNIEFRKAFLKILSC
T1 sequence (P14416 whole entry): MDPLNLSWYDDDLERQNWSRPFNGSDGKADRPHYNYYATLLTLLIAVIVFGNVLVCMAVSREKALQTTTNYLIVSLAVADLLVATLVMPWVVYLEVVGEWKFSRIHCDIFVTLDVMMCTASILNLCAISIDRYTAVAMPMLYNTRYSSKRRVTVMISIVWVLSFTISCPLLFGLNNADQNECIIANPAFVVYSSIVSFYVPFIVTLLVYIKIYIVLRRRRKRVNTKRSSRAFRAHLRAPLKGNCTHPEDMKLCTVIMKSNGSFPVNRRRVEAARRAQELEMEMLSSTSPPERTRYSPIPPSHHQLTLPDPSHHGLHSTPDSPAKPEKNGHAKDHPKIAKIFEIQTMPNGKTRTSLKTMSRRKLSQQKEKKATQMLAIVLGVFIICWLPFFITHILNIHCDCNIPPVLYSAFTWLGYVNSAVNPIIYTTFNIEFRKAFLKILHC

Structure (SMILES): CCCN(CCC)[C@@H]1Cc2cccc3c2n(c(=O)n3CCC)C1
Ratio Ki (Homo sapiens [1]): 0.04
EC50 (D(2) dopamine receptor [2]): 33.9 nM
Ki (D(2) dopamine receptor [3]): 146 nM
Ki (D(3) dopamine receptor [4]): 6.05 nM
Ki (D(3) dopamine receptor [5]): 3.39 nM
Ki (D(2) dopamine receptor [6]): 2.59 nM
EC50 (D(3) dopamine receptor [7]): 3.7 nM
Ratio Ki (Homo sapiens [8]): 1.3
EC50 (D(3) dopamine receptor [9]): 51.9 nM
EC50 (D(2) dopamine receptor [10]): 13.7 nM

Structure (SMILES): CCCN[C@@H]1Cc2cccc3c2n(c(=O)n3CCC)C1
Ratio Ki (Homo sapiens [1]): 0.06
EC50 (D(2) dopamine receptor [2]): 68 nM
Ki (D(2) dopamine receptor [3]): 868 nM
Ki (D(3) dopamine receptor [4]): 47.9 nM
Ki (D(3) dopamine receptor [5]): 21.7 nM
Ki (D(2) dopamine receptor [6]): 8.08 nM
EC50 (D(3) dopamine receptor [7]): 56.1 nM
Ratio Ki (Homo sapiens [8]): 2.7
EC50 (D(3) dopamine receptor [9]): 1420 nM
EC50 (D(2) dopamine receptor [10]): 13 nM

Structure (SMILES): CN[C@@H]1Cc2cccc3[nH]c(=O)n(c23)C1 [SUMANIROLE]
Ki (D(3) dopamine receptor [4]): 6330 nM
Ki (D(3) dopamine receptor [5]): 546 nM
EC50 (D(3) dopamine receptor [7]): 669 nM
EC50 (D(3) dopamine receptor [9]): 186 nM

Structure (SMILES): CCCCn1c(=O)n2c3c(cccc31)C[C@@H](NC)C2
Ratio Ki (Homo sapiens [1]): 0.03
EC50 (D(2) dopamine receptor [2]): 30.5 nM
Ki (D(2) dopamine receptor [3]): 361 nM
Ki (D(3) dopamine receptor [4]): 10.3 nM
Ki (D(3) dopamine receptor [5]): 142 nM
Ki (D(2) dopamine receptor [6]): 12.8 nM
EC50 (D(3) dopamine receptor [7]): 22 nM
Ratio Ki (Homo sapiens [8]): 11
EC50 (D(3) dopamine receptor [9]): 25.6 nM
EC50 (D(2) dopamine receptor [10]): 83 nM

Ratio Ki (Homo sapiens [1]): 0.29
EC50 (D(2) dopamine receptor [2]): 109 nM
Ki (D(2) dopamine receptor [3]): 3700 nM
Ki (D(3) dopamine receptor [4]): 1090 nM
Ki (D(3) dopamine receptor [5]): 12.5 nM
Ki (D(2) dopamine receptor [6]): 5.47 nM
EC50 (D(3) dopamine receptor [7]): 11.9 nM
Ratio Ki (Homo sapiens [8]): 2.3
EC50 (D(3) dopamine receptor [9]): 125 nM
EC50 (D(2) dopamine receptor [10]): 102 nM
Structure (SMILES): CN(CCCCNC(=O)c1ccc2c(c1)Cc1ccccc1-2)[C@@H]1Cc2cccc3[nH]c(=O)n(c23)C1

Structure (SMILES): CCCN(C)[C@@H]1Cc2cccc3[nH]c(=O)n(c23)C1
Ratio Ki (Homo sapiens [1]): 0.25
EC50 (D(2) dopamine receptor [2]): 29 nM
Ki (D(2) dopamine receptor [3]): 1180 nM
Ki (D(3) dopamine receptor [4]): 290 nM
Ki (D(3) dopamine receptor [5]): 104 nM
Ki (D(2) dopamine receptor [6]): 12.5 nM
EC50 (D(3) dopamine receptor [7]): 148 nM
Ratio Ki (Homo sapiens [8]): 8.3
EC50 (D(3) dopamine receptor [9]): 30.7 nM
EC50 (D(2) dopamine receptor [10]): 18.1 nM

Ki (D(3) dopamine receptor [4]): 337 nM
Ki (D(3) dopamine receptor [5]): 76.9 nM
EC50 (D(3) dopamine receptor [7]): 53 nM
EC50 (D(3) dopamine receptor [9]): 94.3 nM
Structure (SMILES): CN(CCCCNC(=O)c1cc2ccccc2[nH]1)[C@@H]1Cc2cccc3[nH]c(=O)n(c23)C1

Structure (SMILES): CCCn1c(=O)n2c3c(cccc31)C[C@@H](NC)C2
Ratio Ki (Homo sapiens [1]): 0.25
EC50 (D(2) dopamine receptor [2]): 38.7 nM
Ki (D(2) dopamine receptor [3]): 751 nM
Ki (D(3) dopamine receptor [4]): 187 nM
Ki (D(3) dopamine receptor [5]): 99.5 nM
Ki (D(2) dopamine receptor [6]): 13.2 nM
EC50 (D(3) dopamine receptor [7]): 178 nM
Ratio Ki (Homo sapiens [8]): 7.5
EC50 (D(3) dopamine receptor [9]): 53.7 nM
EC50 (D(2) dopamine receptor [10]): 549 nM

Structure (SMILES): N[C@@H]1Cc2cccc3[nH]c(=O)n(c23)C1
Ratio Ki (Homo sapiens [1]): 0.98
EC50 (D(2) dopamine receptor [2]): 697 nM
Ki (D(2) dopamine receptor [3]): 12100 nM
Ki (D(3) dopamine receptor [4]): 11800 nM
Ki (D(3) dopamine receptor [5]): 3390 nM
Ki (D(2) dopamine receptor [6]): 114 nM
EC50 (D(3) dopamine receptor [7]): 3400 nM
Ratio Ki (Homo sapiens [8]): 30
EC50 (D(3) dopamine receptor [9]): 1890 nM
EC50 (D(2) dopamine receptor [10]): 684 nM

Structure (SMILES): CN[C@@H]1Cc2cc(C#N)cc3[nH]c(=O)n(c23)C1
Ki (D(3) dopamine receptor [4]): 27200 nM
Ki (D(2) dopamine receptor [6]): 5120 nM

Structure (SMILES): CCCN[C@@H]1Cc2cccc3nc(O)n(c23)C1
Ki (D(3) dopamine receptor [4]): 410 nM
Ki (D(3) dopamine receptor [5]): 25.5 nM
EC50 (D(3) dopamine receptor [7]): 0.81 nM
EC50 (D(3) dopamine receptor [9]): 18.3 nM

Structure (SMILES): CCCN(CCC)[C@@H]1Cc2cccc3nc(O)n(c23)C1
Ratio Ki (Homo sapiens [8]): 2.4

Structure (SMILES): CCCN(CCC)[C@@H]1Cc2cccc3[nH]c(=O)n(c23)C1
EC50 (D(2) dopamine receptor [2]): 2.53 nM
Ki (D(3) dopamine receptor [5]): 27.1 nM
Ki (D(2) dopamine receptor [6]): 11.4 nM
EC50 (D(3) dopamine receptor [9]): 21.8 nM
